Data reported in patent US8871753B2, “Macrocyclic compounds and their use as kinase inhibitors” (Incyte Corporation, priority 2008, dated 2014).
pIC50: −log10 of the molar value. Counter-ions that a name gives are not always drawn.

Columns and labels:
Type in all cases: biochemical
[1] = biological target: T1, human JAK1 (a.a. 837-1142) (Homo sapiens, UniProt P23458); assay: In vitro JAK kinase assay (HTRF, phosphorylation of a biotinylated peptide), JAK1; details: method AA1 (90 μM ATP) or AA2 (1000 μM ATP), not stated per value; read-out: JAK1 IC50
T1 construct: human JAK1 (a.a. 837-1142); His tag (N); made in house; host or cells: insect cells (baculovirus)
T1 sequence (P23458 849-1154): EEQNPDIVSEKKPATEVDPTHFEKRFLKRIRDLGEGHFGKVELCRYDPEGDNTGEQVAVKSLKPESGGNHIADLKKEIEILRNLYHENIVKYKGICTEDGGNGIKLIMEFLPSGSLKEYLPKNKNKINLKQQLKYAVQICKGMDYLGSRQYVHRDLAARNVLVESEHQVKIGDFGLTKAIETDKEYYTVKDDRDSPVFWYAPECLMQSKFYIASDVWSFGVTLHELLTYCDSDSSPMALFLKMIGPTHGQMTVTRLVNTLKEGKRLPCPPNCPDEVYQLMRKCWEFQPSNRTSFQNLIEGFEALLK
Outline: (§1)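 Kinase reactions ran at room temperature for 1 h with ATP matched per isoform (JAK1 90 μM, JAK2 30 μM, JAK3 3 μM). After an EDTA stop, the phosphorylated biotin-peptide was read by HTRF using Eu-Py20 and SA-APC after 40 min binding.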

[2] = biological target: T2, human JAK3 (a.a. 781-1124) (Homo sapiens, UniProt P52333); assay: In vitro JAK kinase assay (HTRF, phosphorylation of a biotinylated peptide), JAK3; details: method AA1 (3 μM ATP) or AA2 (1000 μM ATP), not stated per value
T2 construct: JAK3 (a.a. 781-1124); His tag (N); made in house; host or cells: insect cells (baculovirus)
T2 sequence (P52333 781-1124): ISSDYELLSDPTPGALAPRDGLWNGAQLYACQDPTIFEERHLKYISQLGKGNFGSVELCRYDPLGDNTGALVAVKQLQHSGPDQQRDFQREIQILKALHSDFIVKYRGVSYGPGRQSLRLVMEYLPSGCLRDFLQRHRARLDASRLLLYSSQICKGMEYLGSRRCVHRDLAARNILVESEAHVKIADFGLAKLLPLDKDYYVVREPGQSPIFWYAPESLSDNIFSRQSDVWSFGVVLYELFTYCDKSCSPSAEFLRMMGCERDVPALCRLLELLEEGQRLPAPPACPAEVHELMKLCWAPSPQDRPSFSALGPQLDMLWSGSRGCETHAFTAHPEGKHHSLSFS
Outline: as §1

[3] = biological target: T3, human JAK2 (a.a. 828-1132) (Homo sapiens, UniProt O60674); assay: In vitro JAK kinase assay (HTRF, phosphorylation of a biotinylated peptide), JAK2; details: method AA1 (30 μM ATP) or AA2 (1000 μM ATP), not stated per value
T3 construct: JAK2 (a.a. 828-1132); His tag (N); made in house; host or cells: insect cells (baculovirus)
T3 sequence (O60674 828-1132): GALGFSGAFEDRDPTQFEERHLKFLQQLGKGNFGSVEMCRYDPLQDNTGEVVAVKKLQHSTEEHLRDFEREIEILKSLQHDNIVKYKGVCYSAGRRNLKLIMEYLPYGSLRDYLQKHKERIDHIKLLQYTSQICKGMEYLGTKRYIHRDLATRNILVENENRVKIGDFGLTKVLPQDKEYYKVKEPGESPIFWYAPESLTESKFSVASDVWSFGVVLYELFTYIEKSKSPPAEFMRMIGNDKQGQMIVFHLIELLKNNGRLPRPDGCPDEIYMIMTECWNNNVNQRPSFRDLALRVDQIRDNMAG
Outline: as §1

TYK2 = TYK2 (Homo sapiens, UniProt P29597); assay: TYK2 kinase inhibition (Table A1)
TYK2, sequence (P29597 whole entry): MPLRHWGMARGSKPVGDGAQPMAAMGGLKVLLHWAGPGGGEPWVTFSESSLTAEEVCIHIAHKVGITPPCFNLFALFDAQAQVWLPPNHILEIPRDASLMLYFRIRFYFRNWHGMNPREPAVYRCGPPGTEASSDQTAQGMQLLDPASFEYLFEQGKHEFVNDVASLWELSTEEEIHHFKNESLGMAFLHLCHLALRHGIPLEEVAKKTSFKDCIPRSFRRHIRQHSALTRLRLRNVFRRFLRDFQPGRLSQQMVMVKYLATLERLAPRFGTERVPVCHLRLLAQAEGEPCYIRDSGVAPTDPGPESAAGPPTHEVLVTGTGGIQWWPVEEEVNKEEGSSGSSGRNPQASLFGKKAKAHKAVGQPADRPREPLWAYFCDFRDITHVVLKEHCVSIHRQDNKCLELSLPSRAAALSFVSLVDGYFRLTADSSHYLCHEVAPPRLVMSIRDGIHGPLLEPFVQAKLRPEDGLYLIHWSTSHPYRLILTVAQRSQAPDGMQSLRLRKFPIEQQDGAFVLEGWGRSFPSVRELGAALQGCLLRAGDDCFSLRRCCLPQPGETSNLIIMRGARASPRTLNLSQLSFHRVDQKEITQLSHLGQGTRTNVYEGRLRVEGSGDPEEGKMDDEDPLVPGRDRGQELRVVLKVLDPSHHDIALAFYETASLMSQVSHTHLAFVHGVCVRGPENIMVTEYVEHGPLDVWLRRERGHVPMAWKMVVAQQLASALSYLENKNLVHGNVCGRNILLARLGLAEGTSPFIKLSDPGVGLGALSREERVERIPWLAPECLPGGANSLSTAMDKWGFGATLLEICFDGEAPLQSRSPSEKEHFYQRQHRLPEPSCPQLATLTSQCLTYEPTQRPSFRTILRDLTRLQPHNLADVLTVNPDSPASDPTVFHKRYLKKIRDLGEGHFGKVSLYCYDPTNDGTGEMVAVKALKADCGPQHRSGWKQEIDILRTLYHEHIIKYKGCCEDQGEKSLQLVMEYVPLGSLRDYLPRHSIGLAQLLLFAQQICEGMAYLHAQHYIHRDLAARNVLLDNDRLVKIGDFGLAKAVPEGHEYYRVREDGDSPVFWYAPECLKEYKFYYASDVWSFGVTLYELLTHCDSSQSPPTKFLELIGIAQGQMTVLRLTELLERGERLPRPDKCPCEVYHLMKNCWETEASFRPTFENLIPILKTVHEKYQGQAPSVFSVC

[4] = biological target: T4, Recombinant Human Anaplastic Lymphoma Kinase (Homo sapiens, UniProt Q9UM73); assay: ALK HTRF kinase assay; details: compound at 500 nM or 1 mM; 90 μM ATP
T4 construct: purchased Invitrogen, Carlsbad, Calif
T4 sequence (Q9UM73 19-1620): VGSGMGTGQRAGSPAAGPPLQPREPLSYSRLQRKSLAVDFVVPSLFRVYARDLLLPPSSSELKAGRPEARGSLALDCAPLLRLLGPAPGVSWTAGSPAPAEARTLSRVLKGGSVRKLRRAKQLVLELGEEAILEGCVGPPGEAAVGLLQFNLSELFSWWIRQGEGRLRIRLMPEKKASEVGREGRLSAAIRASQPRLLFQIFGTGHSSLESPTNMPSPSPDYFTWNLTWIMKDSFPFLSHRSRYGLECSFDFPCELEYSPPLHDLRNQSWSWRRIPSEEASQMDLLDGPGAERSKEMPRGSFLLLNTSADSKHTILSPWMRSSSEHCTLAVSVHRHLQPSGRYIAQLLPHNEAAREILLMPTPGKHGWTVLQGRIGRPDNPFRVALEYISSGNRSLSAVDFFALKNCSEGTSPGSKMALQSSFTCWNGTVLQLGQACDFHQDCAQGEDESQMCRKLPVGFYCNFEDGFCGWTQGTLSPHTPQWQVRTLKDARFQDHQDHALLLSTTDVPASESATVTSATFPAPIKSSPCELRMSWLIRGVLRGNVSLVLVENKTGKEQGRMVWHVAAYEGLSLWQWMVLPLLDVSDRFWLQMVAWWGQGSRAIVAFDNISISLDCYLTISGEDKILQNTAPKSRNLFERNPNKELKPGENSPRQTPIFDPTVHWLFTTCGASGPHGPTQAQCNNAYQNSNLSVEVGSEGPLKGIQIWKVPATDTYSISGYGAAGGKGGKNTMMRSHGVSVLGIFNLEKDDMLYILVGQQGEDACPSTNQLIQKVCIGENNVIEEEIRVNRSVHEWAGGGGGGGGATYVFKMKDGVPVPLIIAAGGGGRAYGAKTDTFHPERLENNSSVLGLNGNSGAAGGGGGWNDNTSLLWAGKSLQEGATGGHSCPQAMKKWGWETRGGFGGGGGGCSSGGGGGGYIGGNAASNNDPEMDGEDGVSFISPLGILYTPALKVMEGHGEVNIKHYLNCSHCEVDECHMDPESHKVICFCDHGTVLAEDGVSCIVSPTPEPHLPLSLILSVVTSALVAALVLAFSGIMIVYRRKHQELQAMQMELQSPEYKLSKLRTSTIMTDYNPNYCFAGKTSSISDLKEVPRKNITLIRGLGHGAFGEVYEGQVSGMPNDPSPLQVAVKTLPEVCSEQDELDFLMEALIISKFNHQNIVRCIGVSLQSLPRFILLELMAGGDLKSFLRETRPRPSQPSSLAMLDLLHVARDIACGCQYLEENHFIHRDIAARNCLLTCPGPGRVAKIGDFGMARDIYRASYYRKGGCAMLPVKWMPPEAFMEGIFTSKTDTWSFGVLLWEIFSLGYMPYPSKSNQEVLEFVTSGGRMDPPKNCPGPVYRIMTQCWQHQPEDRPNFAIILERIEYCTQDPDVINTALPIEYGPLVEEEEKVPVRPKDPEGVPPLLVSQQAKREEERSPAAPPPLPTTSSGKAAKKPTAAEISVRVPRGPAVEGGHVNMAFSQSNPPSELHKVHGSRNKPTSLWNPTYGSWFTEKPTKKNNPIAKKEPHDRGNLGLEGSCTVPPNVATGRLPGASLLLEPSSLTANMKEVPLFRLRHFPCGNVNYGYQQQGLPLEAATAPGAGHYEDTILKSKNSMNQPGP
Outline: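 Kinase activity of the recombinant human protein is measured on a biotinylated peptide, with a Eu-W1024 anti-phosphotyrosine antibody and streptavidin-allophycocyanin generating the homogeneous time-resolved fluorescence signal. Inhibition curves are fitted to yield IC50.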

| pIC50 [1] | pIC50 [2] | pIC50 [3] | pIC50 (TYK2) | ALK % of inhibition at a concentration of 500 nM or 1 mM [4] [%] | Compound |
| --- | --- | --- | --- | --- | --- |
| 7.68 | < 6.70 | < 6.70 | < 6.70 | 31 | O=C(CC1CCN(C(=O)c2ccccc2)CC1)Nc1ccc2cc1CCc1cncc(c1)Nc1ncc(Cl)c(n1)N2 [Example A192, 2-(1-Benzoylpiperidin-4-yl)-N-[6-chloro-2,4,8,18,22-pentaazatetracyclo[14.3.1.1(3,7).1(9,13)]docosa-1(20),3(22),4,6,9(21),10,12,16,18-nonaen-12-yl]acetamide bis(trifluoroacetate)] |
| 7.92 | < 6.70 | < 6.70 | < 6.70 | 31 | O=C(CC1CCN(C(=O)c2ccc(F)cc2)CC1)Nc1ccc2cc1CCc1cncc(c1)Nc1ncc(Cl)c(n1)N2 [Example A193, N-[6-Chloro-2,4,8,18,22-pentaazatetracyclo[14.3.1.1(3,7).1(9,13)]docosa-1(20),3(22),4,6,9(21),10,12,16,18-nonaen-12-yl]-2-[1-(4-fluorobenzoyl)piperidin-4-yl]acetamide bis(trifluoroacetate)] |
| 8.14 | < 6.70 | 6.82 | < 6.70 | 31 | O=C(CC1CCN(C(=O)c2ccc(F)cc2F)CC1)Nc1ccc2cc1CCc1cncc(c1)Nc1ncc(Cl)c(n1)N2 [Example A194, N-[6-Chloro-2,4,8,18,22-pentaazatetracyclo[14.3.1.1(3,7).1(9,13)]docosa-1(20),3(22),4,6,9(21),10,12,16,18-nonaen-12-yl]-2-[1-(2,4-difluorobenzoyl)piperidin-4-yl]acetamide bis(trifluoroacetate)] |
| 8.15 | < 6.70 | 7.10 | 6.85 | 35 | O=C(CC1CCN(S(=O)(=O)c2ccccc2)CC1)Nc1ccc2cc1CCc1cncc(c1)Nc1ncc(Cl)c(n1)N2 [Example A195, N-[6-Chloro-2,4,8,18,22-pentaazatetracyclo[14.3.1.1(3,7).1(9,13)]docosa-1(20),3(22),4,6,9(21),10,12,16,18-nonaen-12-yl]-2-[1-(phenylsulfonyl)piperidin-4-yl]acetamide bis(trifluoroacetate)] |
| 7.82 | < 6.70 | 7.00 | < 6.70 | 34 | COc1cccc(S(=O)(=O)N2CCC(CC(=O)Nc3ccc4cc3CCc3cncc(c3)Nc3ncc(Cl)c(n3)N4)CC2)c1 [Example A196, N-[6-Chloro-2,4,8,18,22-pentaazatetracyclo[14.3.1.1(3,7).1(9,13)]docosa-1(20),3(22),4,6,9(21),10,12,16,18-nonaen-12-yl]-2-{1-[(3-methoxyphenyl)sulfonyl]piperidin-4-yl}acetamide bis(trifluoroacetate)] |
| 7.52 | < 6.70 | < 6.70 | < 6.70 | 39 | COc1ccc(S(=O)(=O)N2CCC(CC(=O)Nc3ccc4cc3CCc3cncc(c3)Nc3ncc(Cl)c(n3)N4)CC2)cc1 [Example A197, N-[6-Chloro-2,4,8,18,22-pentaazatetracyclo[14.3.1.1(3,7).1(9,13)]docosa-1(20),3(22),4,6,9(21),10,12,16,18-nonaen-12-yl]-2-{1-[(4-methoxyphenyl)sulfonyl]piperidin-4-yl}acetamide bis(trifluoroacetate)] |
| 9.40 | < 6.70 | 7.30 | 7.30 | 56 | N#Cc1ccccc1S(=O)(=O)N1CCC(CC(=O)Nc2ccc3cc2CCc2cncc(c2)Nc2ncc(Cl)c(n2)N3)CC1 [Example A198, N-[6-Chloro-2,4,8,18,22-pentaazatetracyclo[14.3.1.1(3,7).1(9,13)]docosa-1(20),3(22),4,6,9(21),10,12,16,18-nonaen-12-yl]-2-{1-[(2-cyanophenyl)sulfonyl]piperidin-4-yl}acetamide bis(trifluoroacetate)] |
| 7.49 | < 6.70 | 6.70 | < 6.70 | 41 | N#Cc1ccc(S(=O)(=O)N2CCC(CC(=O)Nc3ccc4cc3CCc3cncc(c3)Nc3ncc(Cl)c(n3)N4)CC2)cc1 [Example A199, N-[6-Chloro-2,4,8,18,22-pentaazatetracyclo[14.3.1.1(3,7).1(9,13)]docosa-1(20),3(22),4,6,9(21),10,12,16,18-nonaen-12-yl]-2-{1-[(4-cyanophenyl)sulfonyl]piperidin-4-yl}acetamide bis(trifluoroacetate)] |
| 8.07 | < 6.70 | 7.00 | < 6.70 | 25 | Cc1oncc1S(=O)(=O)N1CCC(CC(=O)Nc2ccc3cc2CCc2cncc(c2)Nc2ncc(Cl)c(n2)N3)CC1 [Example A200, N-[6-Chloro-2,4,8,18,22-pentaazatetracyclo[14.3.1.1(3,7).1(9,13)]docosa-1(20),3(22),4,6,9(21),10,12,16,18-nonaen-12-yl]-2-{1-[(5-methylisoxazol-4-yl)sulfonyl]piperidin-4-yl}acetamide bis(trifluoroacetate)] |
| 8.03 | < 6.70 | 7.00 | 6.82 | 31 | O=C(CC1CCN(S(=O)(=O)c2ccco2)CC1)Nc1ccc2cc1CCc1cncc(c1)Nc1ncc(Cl)c(n1)N2 [Example A201, N-[6-Chloro-2,4,8,18,22-pentaazatetracyclo[14.3.1.1(3,7).1(9,13)]docosa-1(20),3(22),4,6,9(21),10,12,16,18-nonaen-12-yl]-2-[1-(2-furylsulfonyl)piperidin-4-yl]acetamide bis(trifluoroacetate)] |
| 9.15 | < 6.70 | 7.85 | 6.82 | 42 | O=C(CC1CCN(S(=O)(=O)c2cccnc2)CC1)Nc1ccc2cc1CCc1cncc(c1)Nc1ncc(Cl)c(n1)N2 [Example A202, N-[6-Chloro-2,4,8,18,22-pentaazatetracyclo[14.3.1.1(3,7).1(9,13)]docosa-1(20),3(22),4,6,9(21),10,12,16,18-nonaen-12-yl]-2-[1-(pyridin-3-ylsulfonyl)piperidin-4-yl]acetamide tris(trifluoroacetate)] |
| 7.42 | < 6.70 | 6.82 | < 6.70 | 38 | O=C(CC1CCN(C(=O)c2ccc(F)cc2)CC1)Nc1ccc2cc1CCc1cccc(c1)Nc1ncc(Cl)c(n1)N2 [Example A203, N-[6-Chloro-2,4,8,22-tetraazatetracyclo[14.3.1.1(3,7).1(9,13)]docosa-1(20),3(22),4,6,9(21),10,12,16,18-nonaen-12-yl]-2-[1-(4-fluorobenzoyl)piperidin-4-yl]acetamide trifluoroacetate] |
| 7.70 | < 6.70 | 7.00 | < 6.70 | 28 | O=C(CC1CCN(C(=O)c2ccc(F)cc2F)CC1)Nc1ccc2cc1CCc1cccc(c1)Nc1ncc(Cl)c(n1)N2 [Example A204, N-[6-Chloro-2,4,8,22-tetraazatetracyclo[14.3.1.1(3,7).1(9,13)]docosa-1(20),3(22),4,6,9(21),10,12,16,18-nonaen-12-yl]-2-[1-(2,4-difluorobenzoyl)piperidin-4-yl]acetamide trifluoroacetate] |
| 7.28 | < 6.70 | 6.70 | < 6.70 | 23 | O=C(CC1CCN(S(=O)(=O)c2ccccc2)CC1)Nc1ccc2cc1CCc1cccc(c1)Nc1ncc(Cl)c(n1)N2 [Example A205, N-[6-Chloro-2,4,8,22-tetraazatetracyclo[14.3.1.1(3,7).1(9,13)]docosa-1(20),3(22),4,6,9(21),10,12,16,18-nonaen-12-yl]-2-[1-(phenylsulfonyl)piperidin-4-yl]acetamide trifluoroacetate] |
| 7.07 | < 6.70 | 6.70 | < 6.70 | 23 | COc1ccc(S(=O)(=O)N2CCC(CC(=O)Nc3ccc4cc3CCc3cccc(c3)Nc3ncc(Cl)c(n3)N4)CC2)cc1 [Example A207, N-[6-Chloro-2,4,8,22-tetraazatetracyclo[14.3.1.1(3,7).1(9,13)]docosa-1(20),3(22),4,6,9(21),10,12,16,18-nonaen-12-yl]-2-{1-[(4-methoxyphenyl)sulfonyl]piperidin-4-yl}acetamide trifluoroacetate] |
